Measurements: patent US20210054106A1, “OMNIPHILIC NANO-VESICLES BASED ON MODIFIED POLYSACCHARIDES FOR DELIVERY OF ACTIVE AGENTS” (THE STATE OF ISRAEL, MINISTRY OF AGRICULTURE & RURAL …, priority 2018, published 2021)

Assay: Franz diffusion cell model, RB permeation
Format: in vitro ADME
Conditions: sunflower oil donor, PBS pH 7.4 receptor, 32 °C, up to 16 h

Compound: CCN(CC)c1ccc2c(-c3ccccc3C(=O)O)c3ccc(=[N+](CC)CC)cc-3oc2c1.[Cl-] [RB, Rhodamine B]
- RB permeation across lipophilic membrane into aqueous phase: scarcely permeates
